In patent US20100267561A1, “HERBICIDAL PYRIDAZINONE DERIVATIVES” (priority 2007, published 2010):

How the values were obtained:
Experiment in all cases: Test B pre-/postemergence plant response
Type in all cases: in vivo
[1] = test system: blackgrass (Alopecurus myosuroides); conditions: for Blackgrass plant response rating: 8 g ai/ha
Procedure, shortened: (§1)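 Preemergence and postemergence (plants 2-18 cm, 1- to 4-leaf stage) applications used test chemicals in a non-phytotoxic solvent with surfactant. Plants were held in a greenhouse 13 to 15 days, then rated visually against controls on a 0-100 scale (0 no effect, 100 complete control).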

[2] = test system: common ragweed (Ambrosia elation); conditions: for Ragweed plant response rating: 8 g ai/ha
Procedure, shortened: as §1

soybean (Glycine max) = conditions: for Soybean plant response rating: 8 g ai/ha
Procedure, shortened: as §1

[3] = test system: Russian thistle (Salsola iberica); conditions: Preemergence
Procedure, shortened: as §1

[4] = test system: johnsongrass (Sorghum halepense); conditions: for Johnsongrass plant response rating: 8 g ai/ha
Procedure, shortened: as §1

[5] = test system: pigweed (Amaranthus retroflexus); conditions: for Pigweed plant response rating: 8 g ai/ha
Procedure, shortened: as §1

[6] = test system: Italian ryegrass (Lolium multiflorum); conditions: for Ryegrass, Italian plant response rating: 8 g ai/ha
Procedure, shortened: as §1

[7] = test system: woolly cupgrass (Eriochloa villosa); conditions: for Cupgrass, Woolly plant response rating: 8 g ai/ha
Procedure, shortened: as §1

[8] = test system: lambsquarters (Chenopodium album); conditions: for Lambsquarters plant response rating: 8 g ai/ha
Procedure, shortened: as §1

kochia (Kochia scoparia) = conditions: for Kochia plant response rating: 8 g ai/ha
Procedure, shortened: as §1

[9] = test system: goosegrass (Eleusine indica); conditions: for Goosegrass plant response rating: 8 g ai/ha
Procedure, shortened: as §1

[10] = test system: eastern black (E.B.) nightshade (Solanum ptycanthum); conditions: Preemergence
Procedure, shortened: as §1

[11] = test system: giant foxtail (Setaria faberii); conditions: for Foxtail, Giant plant response rating: 8 g ai/ha
Procedure, shortened: as §1

[12] = test system: catchweed bedstraw (Galium aparine); conditions: Preemergence
Procedure, shortened: as §1

[13] = Postemergence, 16 g ai/ha, scale 0 to 100
[14] = Postemergence, 31 g ai/ha, scale 0 to 100, 0 no effect, 100 complete control
[15] = Postemergence, 62 g ai/ha, scale 0 to 100, 0 no effect, 100 complete control
[16] = Preemergence, 16 g ai/ha, scale 0 to 100 (0 no effect, 100 complete control)
[17] = Preemergence, 31 g ai/ha, 0 to 100 scale, 0 no effect, 100 complete control
[18] = Preemergence, 62 g ai/ha, scale 0 to 100
[19] = Preemergence, 31 g ai/ha, scale 0 to 100 (0 no effect, 100 complete control)
[20] = 31 g ai/ha, scale 0 to 100 (0 no effect, 100 complete control)
[21] = 16 g ai/ha, scale 0 to 100 (0 no effect, 100 complete control)

SMILES: CCc1cc(-c2ccc(Cl)cc2)nn1-c1c(OC(=O)OC(C)C)cnn(C)c1=O [Compound 41]
- Blackgrass plant response rating ([1]; postemergence, 0-100 scale): 85
- Plant response rating, Blackgrass [1, 13]: 90
- Plant response rating, Blackgrass [1, 14]: 95
- Plant response rating, Blackgrass [1, 15]: 95
- Plant response rating, Blackgrass [1, 16]: 100
- Plant response rating, Blackgrass [1, 17]: 100
- Plant response rating, Blackgrass [1, 18]: 100
- Blackgrass plant response rating ([1]; Preemergence, scale 0 to 100): 95
- Ragweed plant response rating ([2]; postemergence, 0-100 scale): 0
- Plant response rating, Ragweed [2, 13]: 0
- Plant response rating, Ragweed [2, 14]: 0
- Plant response rating, Ragweed [2, 15]: 0
- Plant response rating, Ragweed [2, 16]: 0
- Plant response rating, Ragweed [2, 19]: 0
- Plant response rating, Ragweed [2, 18]: 0
- Ragweed plant response rating ([2]; Preemergence, scale 0 to 100): 0
- Soybean plant response rating (soybean (Glycine max); postemergence, 0-100 scale): 0
- Plant response rating, Soybean (soybean (Glycine max); [13]): 0
- Plant response rating, Soybean (soybean (Glycine max); [15]): 0
- Plant response rating, Soybean (soybean (Glycine max); [16]): 0
- Plant response rating, Soybean (soybean (Glycine max); [19]): 0
- Plant response rating, Soybean (soybean (Glycine max); [18]): 0
- Soybean plant response rating (soybean (Glycine max); Preemergence, scale 0 to 100): 0
- Plant response rating, Russian Thistle [3, 20]: 0
- Plant response rating, Russian Thistle ([3]; 62 g ai/ha, scale 0 to 100): 0
- Johnsongrass plant response rating ([4]; postemergence, 0-100 scale): 50
- Plant response rating, Johnsongrass [4, 13]: 50
- Plant response rating, Johnsongrass [4, 14]: 60
- Plant response rating, Johnsongrass [4, 15]: 75
- Plant response rating, Johnsongrass [4, 16]: 65
- Plant response rating, Johnsongrass [4, 17]: 70
- Plant response rating, Johnsongrass [4, 18]: 95
- Johnsongrass plant response rating ([4]; Preemergence, scale 0 to 100): 20
- Pigweed plant response rating ([5]; postemergence, 0-100 scale): 0
- Plant response rating, Pigweed [5, 13]: 0
- Plant response rating, Pigweed [5, 14]: 0
- Plant response rating, Pigweed [5, 15]: 0
- Plant response rating, Pigweed [5, 16]: 0
- Plant response rating, Pigweed [5, 19]: 0
- Plant response rating, Pigweed [5, 18]: 0
- Pigweed plant response rating ([5]; Preemergence, scale 0 to 100): 0
- Ryegrass, Italian plant response rating ([6]; postemergence, 0-100 scale): 90
- Plant response rating, Ryegrass, Italian [6, 13]: 98
- Plant response rating, Ryegrass, Italian [6, 14]: 100
- Plant response rating, Ryegrass, Italian [6, 15]: 100
- Plant response rating, Ryegrass, Italian [6, 16]: 85
- Plant response rating, Ryegrass, Italian [6, 19]: 100
- Plant response rating, Ryegrass, Italian [6, 18]: 100
- Ryegrass, Italian plant response rating ([6]; Preemergence, scale 0 to 100): 85
- Cupgrass, Woolly plant response rating ([7]; postemergence, 0-100 scale): 95
- Plant response rating, Cupgrass, Woolly [7, 13]: 100
- Plant response rating, Cupgrass, Woolly [7, 14]: 100
- Plant response rating, Cupgrass, Woolly [7, 15]: 100
- Plant response rating, Cupgrass, Woolly [7, 16]: 0
- Plant response rating, Cupgrass, Woolly [7, 17]: 0
- Plant response rating, Cupgrass, Woolly [7, 18]: 75
- Cupgrass, Woolly plant response rating ([7]; Preemergence, scale 0 to 100): 0
- Lambsquarters plant response rating ([8]; postemergence, 0-100 scale): 0
- Plant response rating, Lambsquarters [8, 13]: 0
- Plant response rating, Lambsquarters [8, 14]: 0
- Plant response rating, Lambsquarters [8, 15]: 0
- Plant response rating, Lambsquarters [8, 16]: 0
- Plant response rating, Lambsquarters [8, 17]: 0
- Plant response rating, Lambsquarters [8, 18]: 0
- Lambsquarters plant response rating ([8]; Preemergence, scale 0 to 100): 0
- Kochia plant response rating (kochia (Kochia scoparia); postemergence, 0-100 scale): 0
- Plant response rating, Kochia (kochia (Kochia scoparia); [13]): 0
- Plant response rating, Kochia (kochia (Kochia scoparia); [14]): 0
- Plant response rating, Kochia (kochia (Kochia scoparia); [15]): 0
- Plant response rating, Kochia (kochia (Kochia scoparia); [16]): 0
- Plant response rating, Kochia (kochia (Kochia scoparia); [17]): 0
- Plant response rating, Kochia (kochia (Kochia scoparia); [18]): 0
- Kochia plant response rating (kochia (Kochia scoparia); Preemergence, scale 0 to 100): 0
- Goosegrass plant response rating ([9]; postemergence, 0-100 scale): 80
- Plant response rating, Goosegrass [9, 13]: 80
- Plant response rating, Goosegrass [9, 14]: 85
- Plant response rating, Goosegrass [9, 15]: 98
- Plant response rating, Goosegrass [9, 16]: 0
- Plant response rating, Goosegrass [9, 17]: 0
- Plant response rating, Goosegrass [9, 18]: 0
- Goosegrass plant response rating ([9]; Preemergence, scale 0 to 100): 0
- Plant response rating, Nightshade, E. B. [10, 21]: 0
- Plant response rating, Nightshade, E. B. [10, 20]: 0
- Plant response rating, Nightshade, E. B. ([10]; 62 g ai/ha, scale 0 to 100): 0
- Nightshade, E. B. plant response rating ([10]; 8 g ai/ha, scale 0 to 100): 0
- Foxtail, Giant plant response rating ([11]; postemergence, 0-100 scale): 100
- Plant response rating, Foxtail, Giant [11, 13]: 100
- Plant response rating, Foxtail, Giant [11, 14]: 100
- Plant response rating, Foxtail, Giant [11, 15]: 100
- Plant response rating, Foxtail, Giant [11, 16]: 0
- Plant response rating, Foxtail, Giant [11, 17]: 0
- Plant response rating, Foxtail, Giant [11, 18]: 98
- Foxtail, Giant plant response rating ([11]; Preemergence, scale 0 to 100): 0
- Plant response rating, Galium [12, 21]: 0
- Plant response rating, Galium ([12]; 31 g ai/ha, 0 to 100 scale, 0 no effect, 100 complete control): 50
- Plant response rating, Galium ([12]; 62 g ai/ha, scale 0 to 100): 100
- Galium plant response rating ([12]; 8 g ai/ha, scale 0 to 100): 0
